Reference: article PMC6268941, “The Binding Affinity and Molecular Basis of the Structure-Binding Relationship between Urinary Tamm-Horsfall Glycoprotein and Tumor Necrosis Factor-α” (Molecules, 2012)

Target: T1, THP-TNF-α (Tamm-Horsfall glycoprotein / tumor necrosis factor-α binding pair) (Homo sapiens, UniProt P01375+P07911)
T1 construct: recombinant human TNF-α (R&D Systems, 17 kDa); native THP purified from normal human urine (80-90 kDa)
Experiment: ELISA, monosaccharide inhibition of THP-TNF-α binding
Conditions: 10 µg sugar preincubated overnight at 4 °C with coated TNF-α or coated THP, then the other protein added; which partner holds the sugar is not resolved

T1 sequence (P01375 77-233, other chains not shown): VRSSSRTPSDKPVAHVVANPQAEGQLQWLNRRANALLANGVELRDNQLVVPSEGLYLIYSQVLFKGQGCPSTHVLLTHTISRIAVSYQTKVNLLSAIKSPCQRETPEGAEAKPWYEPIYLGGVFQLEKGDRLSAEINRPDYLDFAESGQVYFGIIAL

Structure (SMILES)	ELISA, monosaccharide inhibition of THP-TNF-α binding
CC(=O)N[C@H]1C(O)O[C@H](CO)[C@@H](O)[C@@H]1O (stereo partly drawn) [N-acetyl-glucosamine]	mannose, GlcNAc, and GalNAc significantly suppressed THP-TNF-α binding
CO[C@H]1O[C@H](CO)[C@@H](O)[C@H](O)[C@@H]1O [α-methyl-D-mannoside]	mannose, GlcNAc, and GalNAc significantly suppressed THP-TNF-α binding
CC(=O)N[C@H]1C(O)O[C@H](CO)[C@H](O)[C@@H]1O (stereo partly drawn) [N-acetyl-galactosamine]	mannose, GlcNAc, and GalNAc significantly suppressed THP-TNF-α binding
